Results as given in patent US20140234351A1, “CANCER VACCINES AND VACCINATION METHODS” (ImmunoCellular Therapeutics, Ltd., priority 2013, published 2014).
Read-outs that look alike come from different tables or passages of the source. Blank lines part the entries; values can stand above or below the compound they belong to. Where no end group is shown, it is not given here.

Columns and labels:
[1] = system: human ovarian cancer stem cells 882CSC
[2] = system: human ovarian cancer stem cells 1031CSC
[3] = target: HLA-A*0201 molecules on T2 cells (Homo sapiens, UniProt P04439, D140Y/D185E/D98H/E176V/E277Q/G131W/G231S/I119V/I121R/I166T/I218V/L300P/L318F/N151K/N90K/P208A/P217A/Q86G/Q94H/R138H/R169H/T345S); experiment: T2 cell binding assay of HLA-A2 peptides; details: peptide 75 μg/ml; for binding with T2 cells (affinity in words): conclusion of Example 11; for affinity to HLA-A*0201 molecules (up-regulation of HLA-A*0201 molecules): FIG. 5A
[4] = Immunogenicity in vitro of A2 peptide epitopes (Table 1); type: cell-based; details: Table 1, no method given
[5] = system: human ovarian cancer stem cells 1031CSC; experiment: Killing assay of peptide-specific CTLs (DDAO-SE and cleaved caspase-3 method); details: target:effector 1:10, overnight, cleaved caspase-3, FIG. 6B
[6] = system: human ovarian cancer stem cells 882CSC; experiment: as above; details: target:effector 1:10, overnight, cleaved caspase-3, FIG. 6A

Compound: CSCC[C@H](NC(=O)[C@@H](N)C(C)C)C(=O)N[C@@H](C)C(=O)NCC(=O)N[C@H](C(=O)NCC(=O)N[C@@H](CO)C(=O)N1CCC[C@H]1C(=O)N[C@@H](Cc1ccc(O)cc1)C(=O)N[C@H](C(=O)O)C(C)C)C(C)C [HER2p773]
cytotoxicity of peptide-specific CTLs against 882CSC [1]: efficiently recognize and lyse
cytotoxicity of peptide-specific CTLs against 1031CSC [2]: efficiently recognize and lyse

binding with T2 cells (affinity in words) [3]: lower binding capacity
affinity to HLA-A*0201 molecules (up-regulation of HLA-A*0201 molecules) ([3]; overnight): low affinity
MFI index (relative binding affinity fluorescence index) ([3]; overnight, FIG. 5B): less than 1
Compound: EIWTHSYKV (listed as Homo sapiens) [FOLR1p191]
Immunogenicity in vitro [4]: Yes

binding with T2 cells (affinity in words) [3]: high affinity binding
Compound: KVLEYVIKV (listed as Homo sapiens) [MAGEA1p278]
Immunogenicity in vitro [4]: Yes

Compound: TLADFDPRV [EphA2p883]
cytotoxicity of peptide-specific CTLs against 1031CSC [5]: efficiently recognize and lyse
cytotoxicity of peptide-specific CTLs against 882CSC [6]: efficiently recognize and lyse

Compound: WLPFGFILI [IL-13Rα2p345]
cytotoxicity of peptide-specific CTLs against 1031CSC [5]: efficiently recognize and lyse
cytotoxicity of peptide-specific CTLs against 882CSC [6]: efficiently recognize and lyse

Compound: SLLMWITQC [NY-ESO-1p157]
Immunogenicity in vitro [4]: Yes

Compound: SLLFLLFSL (listed as Homo sapiens)
Immunogenicity in vitro [4]: Yes

binding with T2 cells (affinity in words) [3]: high affinity binding
affinity to HLA-A*0201 molecules (up-regulation of HLA-A*0201 molecules) ([3]; overnight): high affinities
Compound: VLPLTVAEV (listed as Homo sapiens) [mesothelinp531]
Immunogenicity in vitro [4]: Yes
